Data reported in patent US12091402B2 (Avilar Therapeutics, Inc., priority 2021, dated 2024).
pEC50, pKd: −log10 of the molar value. Like-named read-outs stand apart in the source and are kept apart here.

Experiments:
HepG2 cells = test: Cellular uptake assay of AF488-labeled antibody (HepG2); assay type: cell-based; conditions: for EC50: Homo sapiens, HepG2, 6 h, read-out: Uptake Assay EC50 (nM); for pEC50: HepG2 cells
Outline: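 Ternary-complex uptake via ASGPR was imaged after fixation: the read-out is AF488-positive HepG2 cells divided by total DAPI nuclei. Degrader dilutions (IgG- or DNP-based, 0.1% DMSO final) were co-incubated 6 h at 37° C. with 100 nM of the corresponding fluorescent antibody.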

ASGPR = target: T1, ASGPR (Homo sapiens, UniProt P07306); test: Affinity to ASGPR by surface plasmon resonance (SPR)
T1 sequence (P07306 1-291): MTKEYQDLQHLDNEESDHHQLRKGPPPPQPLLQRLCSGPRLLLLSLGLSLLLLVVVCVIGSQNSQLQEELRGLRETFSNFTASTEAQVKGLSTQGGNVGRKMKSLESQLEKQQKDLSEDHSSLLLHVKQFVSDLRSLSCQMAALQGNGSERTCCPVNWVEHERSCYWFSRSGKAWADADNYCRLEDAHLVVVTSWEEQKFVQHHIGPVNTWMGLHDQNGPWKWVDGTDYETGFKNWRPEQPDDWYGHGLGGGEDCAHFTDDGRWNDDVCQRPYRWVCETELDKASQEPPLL

[1] = target: T2, ASGPR receptor on the cell surface (HepG2 cells) (Homo sapiens, UniProt P07306); test: Ternary complex formation assay (flow cytometry, HepG2); assay type: cell-based; conditions: for EC50: Ternary Complex EC50 (nM)
T2 construct: host or cells: HepG2
T2 sequence (P07306 1-291): T1 sequence (P07306 1-291)
T2 sequence (P07307 1-311 partner): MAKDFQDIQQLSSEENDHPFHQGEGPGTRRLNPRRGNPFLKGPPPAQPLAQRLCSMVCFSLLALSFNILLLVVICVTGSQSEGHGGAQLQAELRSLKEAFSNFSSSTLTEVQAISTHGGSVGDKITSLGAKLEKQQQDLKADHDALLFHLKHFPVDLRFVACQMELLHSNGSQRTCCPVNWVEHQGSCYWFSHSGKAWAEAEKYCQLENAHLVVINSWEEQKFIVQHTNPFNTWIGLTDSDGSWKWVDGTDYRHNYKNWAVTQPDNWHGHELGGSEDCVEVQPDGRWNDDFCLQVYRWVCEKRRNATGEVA
Source text: The ternary complex formation assay is designed to identify the concentration of Degrader required to form a complex between the degrader, a constant concentration of fluorescently-labeled antibody and the ASGPR receptor on the cell surface. The peak mean fluorescence intensity (MFI) occurs at the optimal degrader concentration for ternary complex formation. Sub-optimal concentrations of degrader (too much or too little) results in fewer complexes formed and a reduced […].
Human IgG (Sigma-Aldrich, 14506) was covalently labeled with Alexa Fluor 488 using the Alexa Fluor™ 488 Protein Labeling Kit (Thermo Fisher, A10235) following the manufacturer's instructions. HepG2 cells (ATCC, HIB-8065) were cultured to about 70% confluence and harvested by trypsinization. Single cell suspensions of HepG2 cells were plated in 96 well plates at 1×10^5 cells/well in cell culture media (DMEM supplemented with […]) and placed at 4° C. For studies using human IgG, cells were incubated with 100 nM AF488-labeled anti-human IgG and serial dilutions of IgG-based degrader for 1 hour at 4° C. For studies using DNP, cells were incubated with 100 nM AF488-labeled polyclonal rabbit anti-dinitrophenyl (DNP) antibodies (ThermoFisher) and serial dilutions of DNP-based degrader for 1 hour at 4° C. After washing once with ice-cold PBS containing 0.1% BSA and 0.1% sodium azide, cells were resuspended in 150 uL PBS+0.1% BSA and cell-associated AF488 fluorescence was measured by flow cytometry using the iQue® Screener PLUS Flow Cytometer (IntelliCyt).

[2] = HepG2 cells, 100 nM AF488-labeled antibody, 1 hour at 4° C., class symbols
[3] = HepG2 cells, ternary complex formation, read-out: TCF EC50

SMILES | EC50 (HepG2 cells) [nM] | pKd (ASGPR) | EC50 [1, 2] [nM] | pEC50 (HepG2 cells; read-out: Uptake EC50) | pEC50 [1] | further results
O=[N+]([O-])c1ccc(NCCOCCOCCOCCOC[C@@]23CO[C@@H](O2)[C@H](Nc2nc(Cl)ns2)[C@@H](O)[C@H]3O)c([N+](=O)[O-])c1 [Compound 27, (1S,2R,3R,4R,5S)-4-((3-chloro-1,2,4-thiadiazol-5-yl)amino)-1-(13-((2,4-dinitrophenyl)amino)-2,5,8,11-tetraoxatridecyl)-6,8-dioxabicyclo[3.2.1]octane-2,3-diol] | < 100 | > 7.00 | < 100 | – | – | –
O=C(CCOCCNC(=O)COCCOCCOCCNc1ccc([N+](=O)[O-])cc1[N+](=O)[O-])NCCOCCOCCOCCOC[C@@]12CO[C@@H](O1)[C@H](Nc1nc(Cl)ns1)[C@@H](O)[C@H]2O [Compound 29, N-(1-((1S,2R,3R,4R,5S)-4-((3-chloro-1,2,4-thiadiazol-5-yl)amino)-2,3-dihydroxy-6,8-dioxabicyclo[3.2.1]octan-1-yl)-2,5,8,11-tetraoxatridecan-13-yl)-3-((14-((2,4-dinitrophenyl)amino)-4-oxo-6,9,12-trioxa-3-azatetradecyl)oxy)propanamide] | < 100 | 6.30 to 7.00 | < 100 | – | – | –
O=C(CCOCC(COCCC(=O)NCCOCCOCCOCCOC[C@@]12CO[C@@H](O1)[C@H](Nc1nc(Cl)ns1)[C@@H](O)[C@H]2O)NC(=O)COCCOCCOCCNc1ccc([N+](=O)[O-])cc1[N+](=O)[O-])NCCOCCOCCOCCOC[C@@]12CO[C@@H](O1)[C@H](Nc1nc(Cl)ns1)[C@@H](O)[C@H]2O [Compound 30, 3,3′-((2-(2-(2-(2-(2-((2,4-dinitrophenyl)amino)ethoxy)ethoxy)ethoxy)acetamido)propane-1,3-diyl)bis(oxy))bis(N-(1-((1S,2R,3R,4R,5S)-4-((3-chloro-1,2,4-thiadiazol-5-yl)amino)-2,3-dihydroxy-6,8-dioxabicyclo[3.2.1]octan-1-yl)-2,5,8,11-tetraoxatridecan-13-yl)propanamide)] | < 100 | > 7.00 | < 100 | – | – | –
O=C(CCOCC(COCCC(=O)NCCOCCOCCOCCOC[C@@]12CO[C@@H](O1)[C@H](Nc1nccc(C(F)(F)F)n1)[C@@H](O)[C@H]2O)NC(=O)COCCOCCOCCNc1ccc([N+](=O)[O-])cc1[N+](=O)[O-])NCCOCCOCCOCCOC[C@@]12CO[C@@H](O1)[C@H](Nc1nccc(C(F)(F)F)n1)[C@@H](O)[C@H]2O [Compound 31, 3,3′-((2-(2-(2-(2-(2-((2,4-dinitrophenyl)amino)ethoxy)ethoxy)ethoxy)acetamido)propane-1,3-diyl)bis(oxy))bis(N-(1-((1S,2R,3R,4R,5S)-2,3-dihydroxy-4-((4-(trifluoromethyl)pyrimidin-2-yl)amino)-6,8-dioxabicyclo[3.2.1]octan-1-yl)-2,5,8,11-tetraoxatridecan-13-yl)propanamide)] | < 100 | > 7.00 | < 100 | – | – | –
CC(C)C[C@@H]1NC(=O)[C@H](Cc2c[nH]cn2)NC(=O)[C@H](Cc2c[nH]c3ccccc23)NC(=O)[C@H](C)NC(=O)[C@@H]2CSSC[C@H](NC(=O)[C@H](Cc3c[nH]c4ccccc34)NC(=O)[C@H](C(C)C)NC(=O)[C@H](CC(C)C)NC(=O)[C@H](CCC(=O)O)NC(=O)CNC1=O)C(=O)N[C@@H]([C@@H](C)O)C(=O)N1CCC[C@@H]1C(=O)N1C[C@@H](NC(=O)COCCOCCOCC(=O)NC(COCCC(=O)NCCOCCOCCOCCOC[C@H]3OC[C@H](Nc4nccc(C(F)(F)F)n4)[C@@H](O)[C@H]3O)COCCC(=O)NCCOCCOCCOCCOC[C@H]3OC[C@H](Nc4nccc(C(F)(F)F)n4)[C@@H](O)[C@H]3O)C[C@H]1C(=O)N[C@@H](CC(=O)O)C(=O)N2 [Compound 38] | – | > 7.00 | – | – | – | pEC50 (HepG2 cells; 100 nM AF488-labeled antibody, 37° C. for 6 hours, class symbols, read-out: Uptake Assay EC50): > 7.00; pEC50 ([1]; HepG2 cells, 100 nM AF488-labeled antibody, 1 hour at 4° C., class symbols, read-out: Ternary Complex EC50): > 7.00
CC(C)C[C@@H]1NC(=O)[C@H](Cc2c[nH]cn2)NC(=O)[C@H](Cc2c[nH]c3ccccc23)NC(=O)[C@H](C)NC(=O)[C@@H]2CSSC[C@H](NC(=O)[C@H](Cc3c[nH]c4ccccc34)NC(=O)[C@H](C(C)C)NC(=O)[C@H](CC(C)C)NC(=O)[C@H](CCC(=O)O)NC(=O)CNC1=O)C(=O)N[C@@H]([C@@H](C)O)C(=O)N1CCC[C@@H]1C(=O)N1C[C@@H](NC(=O)CNC(COCCC(=O)NCCOCCOCCOCCO[C@@H]3O[C@H](CO)[C@H](O)[C@H](O)[C@H]3Nc3cncc(C(F)(F)F)n3)COCCC(=O)NCCOCCOCCOCCO[C@@H]3O[C@H](CO)[C@H](O)[C@H](O)[C@H]3Nc3cncc(C(F)(F)F)n3)C[C@H]1C(=O)N[C@@H](CC(=O)O)C(=O)N2 [Compound 71] | – | > 7.00 | – | > 7.00 | > 7.00 | –
CC(C)C[C@@H]1NC(=O)[C@H](Cc2c[nH]cn2)NC(=O)[C@H](Cc2c[nH]c3ccccc23)NC(=O)[C@H](C)NC(=O)[C@@H]2CSSC[C@H](NC(=O)[C@H](Cc3c[nH]c4ccccc34)NC(=O)[C@H](C(C)C)NC(=O)[C@H](CC(C)C)NC(=O)[C@H](CCC(=O)O)NC(=O)CNC1=O)C(=O)N[C@@H]([C@@H](C)O)C(=O)N1CCC[C@@H]1C(=O)N1C[C@@H](NC(=O)CCOCCOCCOCCOCCNC(=O)CCCc3cn(CCCCCC(=O)NC(COCCC(=O)NCCOCCOCCOCCO[C@@H]4O[C@H](CO)[C@H](O)[C@H](O)[C@H]4Nc4cncc(C(F)(F)F)n4)COCCC(=O)NCCOCCOCCOCCO[C@@H]4O[C@H](CO)[C@H](O)[C@H](O)[C@H]4Nc4cncc(C(F)(F)F)n4)nn3)C[C@H]1C(=O)N[C@@H](CC(=O)O)C(=O)N2 [Compound 82] | – | – | – | > 7.00 | > 7.00 | –
CC(C)C[C@@H]1NC(=O)[C@H](Cc2c[nH]cn2)NC(=O)[C@H](Cc2c[nH]c3ccccc23)NC(=O)[C@H](C)NC(=O)[C@@H](NC(=O)[C@H](CC(=O)O)NC(=O)CCOCCOCCOCCOCCNC(=O)CCCc2cn(CCCCCC(=O)NC(COCCC(=O)NCCOCCOCCOCCOC[C@@H]3CC[C@@H](Nc4nccc(C(F)(F)F)n4)CO3)COCCC(=O)NCCOCCOCCOCCOC[C@@H]3CC[C@@H](Nc4nccc(C(F)(F)F)n4)CO3)nn2)CSSC[C@@H](C(=O)N[C@H](C(N)=O)[C@@H](C)O)NC(=O)[C@H](Cc2c[nH]c3ccccc23)NC(=O)[C@H](C(C)C)NC(=O)[C@H](CC(C)C)NC(=O)[C@H](CCC(=O)O)NC(=O)CNC1=O [Compound 87] | – | < 6.00 | – | < 6.00 | – | pEC50 [1, 3]: < 6.00
CC(C)C[C@@H]1NC(=O)[C@H](Cc2c[nH]cn2)NC(=O)[C@H](Cc2c[nH]c3ccccc23)NC(=O)[C@H](C)NC(=O)[C@@H](NC(=O)[C@H](CC(=O)O)NC(=O)CCOCCOCCOCCOCCNC(=O)CCCc2cn(CCCCCC(=O)NC(COCCC(=O)NCCOCCOCCOCCO[C@@H]3O[C@H](CO)[C@H](O)[C@H](O)[C@H]3Nc3cncc(C(F)(F)F)n3)COCCC(=O)NCCOCCOCCOCCO[C@@H]3O[C@H](CO)[C@H](O)[C@H](O)[C@H]3Nc3cncc(C(F)(F)F)n3)nn2)CSSC[C@@H](C(=O)N[C@H](C(N)=O)[C@@H](C)O)NC(=O)[C@H](Cc2c[nH]c3ccccc23)NC(=O)[C@H](C(C)C)NC(=O)[C@H](CC(C)C)NC(=O)[C@H](CCC(=O)O)NC(=O)CNC1=O [Compound 89] | – | – | – | > 7.00 | – | pEC50 [1, 3]: > 7.00
CC(C)C[C@@H]1NC(=O)[C@H](Cc2c[nH]cn2)NC(=O)[C@H](Cc2c[nH]c3ccccc23)NC(=O)[C@H](C)NC(=O)[C@@H]2CSSC[C@H](NC(=O)[C@H](Cc3c[nH]c4ccccc34)NC(=O)[C@H](C(C)C)NC(=O)[C@H](CC(C)C)NC(=O)[C@H](CCC(=O)O)NC(=O)CNC1=O)C(=O)N[C@@H]([C@@H](C)O)C(=O)N1CCC[C@@H]1C(=O)N1C[C@H](NC(=O)c3ccc(N4CCC(CN5CCN(C[C@H]6OC[C@H](Nc7cncc(C(F)(F)F)n7)[C@@H](O)[C@H]6O)CC5)CC4)cc3)C[C@H]1C(=O)N[C@@H](CC(=O)O)C(=O)N2 [Compound 93] | – | – | – | > 7.00 | > 7.00 | –
